Test results as given in patent US20030186817A1, “SUBSTITUTED 2,4-DIAMINO-1,3,5-TRIAZINES, PROCESSES FOR THEIR PREPARATION AND THEIR USE AS HERBICIDES AND PLANT GROWTH REGULATORS” (priority 1998, published 2003).

Legend:
Type in all cases: in vivo
[1] = system: Cyperus iria and Echinocloa crus-galli; assay: Action on weeds in rice (paddy rice conditions, visual rating); settings: dammed height of water 2-3 cm, about three weeks after application; note: test concentration or dose not given here
Text: Typical rice weeds such as Echinocloa crus galli and Cyperus iria are cultivated in a greenhouse under paddy rice conditions ([…] height of water: 2-3 cm). After the treatment, the test plants are set up in a greenhouse under optimum growth conditions and are maintained in this way under these conditions throughout the test period. About three weeks after application, evaluation is made by visual rating of the damage to the plants by comparison with untreated controls.

[2] = system: Stellaria media, Amaranthus retroflexus, Sinapis avreuse, Avena fatura, Lolium multiflorum and Setaria viridis; assay: Post-emergence action against weeds (greenhouse pot test, visual rating); settings: three-leaf stage, application rate of 3.0 kg or less of active substance per hectare, 3 to 4 weeks in greenhouse
Procedure: Seeds of mono- and dicotyledonous weeds are placed in sandy loam soil in cardboard pots, covered with soil and cultivated in a greenhouse under good growth conditions. Two to three weeks after sowing, the test plants are treated at the three-leaf stage. The novel compounds, formulated as wettable powders or emulsion concentrates, are sprayed in various dosages onto the green parts of the plant at an application rate of from 600 to 8001 of water/ha (converted), and, after the test plants have remained in the greenhouse for 3 to 4 weeks under optimum growth conditions, the action of the preparations is rated visually by comparison with untreated controls. The novel compositions also have good post-emergence herbicidal activity against a broad spectrum of economically important weed grasses and broad-leaved weeds.

[3] = system: Stellaria media, Amaranthus retroflexus, Sinapis avreuse, Avena fatura, Lolium multiflorum and Setaria viridis; assay: Pre-emergence action against weeds (greenhouse pot test, visual rating); settings: application rate of 3.0 kg or less of active substance per hectare, trial period of 3 to 4 weeks
Text: Seeds of mono- and dicotyledonous weed plants are placed in sandy loam soil in cardboard pots and covered with soil. The novel compounds, formulated as wettable powders or emulsion concentrates, are then applied to the surface of the soil cover in the form of an aqueous suspension or emulsion at an application rate of from 600 to 800 l of water/ha (converted), in various dosages. After the treatment, the pots are placed in a greenhouse and kept under good growth conditions for the weeds. After the test plants have emerged after a trial period of 3 to 4 weeks, the damage to the plants or the negative effect on emergence is rated visually by comparison with untreated controls. As shown by the test results, the novel compounds have good herbicidal pre-emergence activity against a broad spectrum of weed grasses and broad-leaved weeds.

| Compound | herbicidal activity against rice weeds (visual rating of damage) [1] | herbicidal activity post-emergence (rated visually) [2] | herbicidal activity pre-emergence (damage to the plants or negative effect on emergence, rated visually) [3] |
| --- | --- | --- | --- |
| CCC(CCOc1cccc(Cl)c1)Nc1nc(N)nc(C(F)(F)C(F)F)n1 (stereo not drawn) [Example 347] | very good herbicidal activity | good and in most cases very good herbicidal activity | good and in most cases very good herbicidal activity |
| CCC(CCOc1cccc(OC)c1)Nc1nc(N)nc(C(F)(F)C(F)F)n1 (stereo not drawn) [Example 228] | very good herbicidal activity | good and in most cases very good herbicidal activity | good and in most cases very good herbicidal activity |
| CCC(CCOc1cccc(F)c1)Nc1nc(N)nc(C(C)(C)F)n1 (stereo not drawn) [Example 222] | very good herbicidal activity | good and in most cases very good herbicidal activity | good and in most cases very good herbicidal activity |
| CCC(COC(=O)c1ccccc1C)Nc1nc(N)nc(C(C)C)n1 (stereo not drawn) [Example 42] | very good herbicidal activity | good and in most cases very good herbicidal activity | good and in most cases very good herbicidal activity |
| CC(CCOc1ccccc1)Nc1nc(N)nc(C(C)(C)F)n1 (stereo not drawn) [Example 368, 2-amino-4-fluoroisopropyl-6-[N-(1-methyl-3-phenoxyprop-1-yl)amino]-1,3,5-triazine] | very good herbicidal activity | good and in most cases very good herbicidal activity | good and in most cases very good herbicidal activity |
| CCC(CCOc1cccc(F)c1)Nc1nc(N)nc(C(C)C)n1 (stereo not drawn) [Example 381] | very good herbicidal activity | good and in most cases very good herbicidal activity | good and in most cases very good herbicidal activity |
| CC(CCOc1cc(F)cc(F)c1)Nc1nc(N)nc(C(C)C)n1 (stereo not drawn) [Example 281] | very good herbicidal activity | good and in most cases very good herbicidal activity | good and in most cases very good herbicidal activity |
| CCC(CCOc1ccccc1)Nc1nc(N)nc(C(C)C)n1 (stereo not drawn) [Example 231] | very good herbicidal activity | good and in most cases very good herbicidal activity | good and in most cases very good herbicidal activity |
| Cc1cccc(OCCC(C)Nc2nc(N)nc(C(F)(F)C(F)F)n2)c1 (stereo not drawn) [Example 326] | very good herbicidal activity | good and in most cases very good herbicidal activity | good and in most cases very good herbicidal activity |
| CCC(CCOc1cccc(OC)c1)Nc1nc(N)nc(C(C)C)n1 (stereo not drawn) [Example 376] | very good herbicidal activity | good and in most cases very good herbicidal activity | good and in most cases very good herbicidal activity |
| COc1cccc(OCCC(C)Nc2nc(N)nc(C(C)(C)F)n2)c1 (stereo not drawn) [Example 303] | very good herbicidal activity | good and in most cases very good herbicidal activity | good and in most cases very good herbicidal activity |
| CCC(CCOc1cccc(C)c1)Nc1nc(N)nc(C(C)C)n1 (stereo not drawn) [Example 358] | very good herbicidal activity | good and in most cases very good herbicidal activity | good and in most cases very good herbicidal activity |
| Cc1ccccc1C(=O)OCC(C)Nc1nc(N)nc(C(C)C)n1 (stereo not drawn) [Example 41] | very good herbicidal activity | good and in most cases very good herbicidal activity | good and in most cases very good herbicidal activity |
| CCC(CCOc1cccc(Cl)c1)Nc1nc(N)nc(C(C)C)n1 (stereo not drawn) [Example 372] | very good herbicidal activity | good and in most cases very good herbicidal activity | good and in most cases very good herbicidal activity |
| CCC(CCOc1cccc(OC)c1)Nc1nc(N)nc(C(C)(C)F)n1 (stereo not drawn) [Example 384] | very good herbicidal activity | good and in most cases very good herbicidal activity | good and in most cases very good herbicidal activity |
| CCC(CCOc1cccc(C)c1)Nc1nc(N)nc(C(C)(C)F)n1 (stereo not drawn) [Example 245] | very good herbicidal activity | good and in most cases very good herbicidal activity | good and in most cases very good herbicidal activity |
| CCC(CCOc1cc(F)cc(F)c1)Nc1nc(N)nc(C(C)(C)F)n1 (stereo not drawn) [Example 370] | very good herbicidal activity | good and in most cases very good herbicidal activity | good and in most cases very good herbicidal activity |
| CCC(CCOc1ccccc1)Nc1nc(N)nc(C(C)(C)F)n1 (stereo not drawn) [Example 369] | very good herbicidal activity | good and in most cases very good herbicidal activity | good and in most cases very good herbicidal activity |
| CC(CCOc1cc(F)cc(F)c1)Nc1nc(N)nc(C(C)(C)F)n1 (stereo not drawn) [Example 207] | very good herbicidal activity | good and in most cases very good herbicidal activity | good and in most cases very good herbicidal activity |
| CCC(CCOc1cc(C)cc(C)c1)Nc1nc(N)nc(C(C)C)n1 (stereo not drawn) [Example 340] | very good herbicidal activity | good and in most cases very good herbicidal activity | good and in most cases very good herbicidal activity |
| COc1cccc(OCCC(C)Nc2nc(N)nc(C(F)(F)C(F)F)n2)c1 (stereo not drawn) [Example 311] | very good herbicidal activity | good and in most cases very good herbicidal activity | good and in most cases very good herbicidal activity |
